Reference: patent US10682362B2, “Treatments and diagnostics for cancers” (Wayne State University, priority 2015, dated 2020)
Where two headings read alike, the source gives them in different places. Where a SMILES comes first, the peptide text is derived from it. The star is where a group is joined. Cbz = O=C(OCc1ccccc1)*

Experiments:
AR-V7 protein [1] = details: 22Rv1 cells, 20 μM Gal; 40 μM calpeptin or PD 66 h; 50 μM ALLM or pan-caspase inhibitor up to 72 h
Source text: Western blotting with anti-N20/AR antibody to examine levels of AR and AR-V7 proteins in various prostate cancer cell lines. […] This was followed by Western blotting with specific AR-V7 antibody, with Actin as a loading control.
Western blotting. (a, b) AR-V7 and AR protein levels determined by AR-V7 specific antibody and N20 antibody, respectively. (c) PARP/p89 is a caspase-3 cleavage fragment while PARP/p65 is a calpain cleavage product. (d) Caspase-3 cleavage fragment of Spectrin α2/p120, and a 150 fragment by either caspase-3 or calpain cleavage. (e) Autolysis of calpain small subunit (Cal Sm) to p28 fragment. (f) Calpain cleavage fragment of Calpastatin/p70. […] Caspase-3 activity assay.
In C, (a) Cell lysates were derivatized with 2,4-dinitrophenylhydrazine (DNPH), followed by Western blotting to determine the levels of oxidized proteins (Oxi-P). Actin was used a load control (b). AR-V7 levels were determined by AR-V7 specific antibody (c). PARP/p89 is caspase-3 cleavage fragment while PARP/p65 is calpain cleavage product (d). (e) Autolysis of calpain small subunit (Cal Sm) to p28 fragment. (f) Actin, loading control.

proteasome [2] = biological target: T1, proteasome (Homo sapiens, UniProt P28072+P28074+Q99436); assay: cellular proteasomal CT-like, PGPH-like and T-like activities in 22Rv1 cells; assay type: cell-based; design: endogenous in cells; host or cells: 22Rv1; details: for inhibition at 20 µM: 22Rv1, 22Rv1 cells, 20 μM Gal
T1 sequence (P28074 60-263): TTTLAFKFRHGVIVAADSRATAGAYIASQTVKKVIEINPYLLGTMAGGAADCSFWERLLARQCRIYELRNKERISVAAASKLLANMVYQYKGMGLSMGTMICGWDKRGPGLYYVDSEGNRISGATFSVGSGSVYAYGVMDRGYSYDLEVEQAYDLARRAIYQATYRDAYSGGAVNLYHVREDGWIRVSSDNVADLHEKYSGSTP
T1 sequence (P28072 1-239): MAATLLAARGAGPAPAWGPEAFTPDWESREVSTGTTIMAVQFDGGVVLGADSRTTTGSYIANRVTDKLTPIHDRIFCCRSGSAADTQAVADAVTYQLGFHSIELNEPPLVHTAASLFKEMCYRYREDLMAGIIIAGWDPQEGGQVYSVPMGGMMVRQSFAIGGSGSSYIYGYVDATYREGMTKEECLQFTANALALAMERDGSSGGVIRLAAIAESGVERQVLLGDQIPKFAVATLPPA
T1 sequence (Q99436 44-277): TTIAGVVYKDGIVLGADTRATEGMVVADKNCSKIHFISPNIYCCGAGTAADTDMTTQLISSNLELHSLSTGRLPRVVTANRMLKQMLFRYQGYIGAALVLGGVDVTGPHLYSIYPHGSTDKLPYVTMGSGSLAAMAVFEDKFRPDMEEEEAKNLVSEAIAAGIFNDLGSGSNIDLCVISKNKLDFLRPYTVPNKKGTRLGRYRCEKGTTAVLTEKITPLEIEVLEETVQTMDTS
Source text: (§1) FIGS. 11A-11D. […] Actin was used a load control (b). […] (f) Actin, loading control.

22Rv1 cells [3] = assay: morphological changes and crystal violet staining of 22Rv1 cells; assay type: cell-based; details: bortezomib 2.5 or 5 nM, Gal 20 μM, 24 h and 48 h
Source text: In 12C, cells were fixed with formalin, and then stained with violet overnight.

metastatic CRPC [4] = details: cited from earlier work
purified 26S proteasome = purified 26S proteasome (Homo sapiens, UniProt P28072+P28074+Q99436); assay: proteasome activities of purified 26S proteasome; assay type: biochemical; details: 15 min
Method: (§2) FIGS. 10A-10E. […] Purified 20S proteasome was used a control; BG, background (10D).
(§3) Then deubiquitinase (DUBs) activity associated with the 19S proteasome was determined by using the purified 26S proteasome.

22Rv1 cells [5] = assay: cell proliferation by MTT in 22Rv1 cells; assay type: cell-based; details: Gal alone, 24 h
DUBs = assay: DUB activity in 22Rv1 cells; assay type: cell-based; details: 20 μM Gal
Method: as §1
(§4) Sustained DUBs inhibition was detected for up to 48 h (FIG. 11A). […] AR-V7 protein level remained subtle changes up to 56 h and decreased after 64-68 h, and completely depleted after 72 h (FIG. 11C, c). […] Consistently, caspase-3-specific cleavage fragments, 89 kD fragment of PARP (PARP/p89) were also detected between 48 and 72 h (FIG. 11C, d). Calpain activation is associated with self-autolysis of its small subunit. […] This finding has important clinical significance.

[6] = system: 19S proteasome-associated DUB; assay: DUBs activity of purified 26S proteasome (Ub-AMC substrate); assay type: biochemical
Method: as §2, §3

calpain [7] = assay: calpain activation by cleavage fragments (Western blotting) in 22Rv1 cells; assay type: cell-based; details: 20 μM Gal, same time points as p28 (48 to 72 h)
purified 20S proteasome = purified 20S proteasome (Homo sapiens, UniProt P28072+P28074+Q99436); assay: proteasome activities of purified 20S proteasome; assay type: biochemical; details: 15 min
Method: as §2, §3

proteasome [8] = biological target: T1, proteasome; assay: cellular proteasomal activities in VCaP cells; assay type: cell-based; design: endogenous in cells; details: 5-20 μM Gal, 72 h
Source text: Therefore, Gal-induced proteasome inhibition occurs prior to activation of calpain/caspases and loss of AR-V7 protein (FIGS. 4 vs. 2).

[9] = system: CRPC with C-terminal AR loss; details: Phase 2 ARMOR2; cited from earlier work
[10] = system: BTZ-resistant MM 8826 cells; assay: cell proliferation by MTS in BTZ-resistant MM cells; assay type: cell-based; details: Gal alone at 10 or 20 μM, 24 h
Method: FIGS. 13A-C. […] Cell proliferation was determined by MTS. […] Cell death was determined by detection of PARP cleavage. […] Actin was used as loading control.
8826-7BR is a multiple myeloma cell line developed resistance to bortezomib. […] This finding has high translational potential to clinics.

[11] = system: full length AR (AR-FL) protein; assay: Western blotting of full length AR (anti-AR N20) in 22Rv1 cells; assay type: cell-based
proteasome [12] = assay: proteasome CT-like activity in protein extract of 22Rv1 cells; assay type: biochemical; details: high concentrations (50 or 100 μM)
[13] = system: oxidized proteins (Oxi-P); assay: oxidized proteins (DNPH derivatization, Western blotting) in 22Rv1 cells; assay type: cell-based; details: 20 μM Gal
Method: as §1, §4

caspase-3 = assay: Caspase-3 activity assay in 22Rv1 cells; assay type: cell-based; details: 20 μM Gal
proteasome [14] = details: cited from earlier work
AR-V7 = details: 5 μM of MG132; cited from earlier work
calpain [15] = details: cited from earlier work
metastatic CRPC [16] = details: phase III clinical trials; versus 10.9 months placebo; cited from earlier work
AR-V7 protein [17] = assay: Western blotting of AR-V7 in nuclear and cytosolic fractions of 22Rv1 cells; assay type: cell-based; details: for rescue of Gal-induced nuclear AR-V7 loss: androgen-starved 22Rv1 cells, 20 μM Gal plus 40 μM calpeptin or 20 μM Z-VAD
Source text: Nuclear fractions were isolated and separated by Western blotting to determine AR-V7 levels. Actin was used as a loading control.

For `CSCC[C@@H](C=O)NC(=O)[C@H](CC(C)C)NC(=O)[C@H](CC(C)C)NC(C)=O` [ALLM, N-acetyl-L-leucyl-L-leucyl-L-methioninal] (Ac-Leu-Leu-Met-aldehyde), the “rescue of Gal-induced AR-V7 loss by inhibitor” value (AR-V7 protein [1]) was “rescue AR-V7 loss partially”.
With `CC(C)C[C@H](NC(=O)[C@H](Cc1ccccc1)NC(=O)c1cnccn1)B(O)O` [BTZ] the “proteasomal CT-like activity” value (proteasome [2]; 22Rv1 cells, BTZ alone, 48 h) was “caused proteasomal CT-like inhibition”, the “proteasomal chymotrypsin (CT)-like activity” value (proteasome [2]; 22Rv1 cells, BTZ alone, 72 h) was “dose-dependent inhibition” and the “morphological changes / cell death” value (22Rv1 cells [3]) was “did not cause apparent morphological changes”.
In the case of `CNC(=O)c1ccc(N2C(=S)N(c3ccc(C#N)c(C(F)(F)F)c3)C(=O)C2(C)C)cc1F` [Enzalutamide], the “patients with PSA level decreased more than 50%” value (metastatic CRPC [4]; chemo-naive patients) is given as 40/65, the “patients with PSA level decreased more than 50%” value (metastatic CRPC [4]; chemotherapy-treated patients) is given as 38/75 and the “lived longer than those taking placebo” value (metastatic CRPC [4]; interim analysis) is given as “approximately 5 months”.
For `C[C@]12CC[C@H](O)CC1=CC[C@@H]1[C@@H]2CC[C@]2(C)C(n3cnc4ccccc43)=CC[C@@H]12` [Gal, (3S,8R,9S,10R,13S,14S)-17-(benzimidazol-1-yl)-10,13-dimethyl-2,3,4,7,8,9,11,12,14,15-decahydro-1H-cyclopenta[a]phenanthren-3-ol], the “three proteasomal activities (CT, PGPH and T-like)” value (purified 26S proteasome) was “unable to block all the three proteasomal activities”, the “cell proliferation (MTT)” value (22Rv1 cells [5]) was “did not inhibit cell proliferation” and the “earliest time of DUBs inhibition” value (DUBs) was no more than 2 h. The “sustained DUBs inhibition detected up to” value (DUBs) was “up to 48 h”, the “DUBs activity of purified 26S proteasome” value ([6]; Gal 20 μM, 15 min) was “suppressed” and the “DUBs activity of purified 26S proteasome” value ([6]; Gal at a low dose (10 μM)) was “could efficiently inhibit DUBs activity”. For the same molecule, the “calpain cleavage product Calpastatin/p70” value (calpain [7]) was “detected at the same time points”, the “three proteasomal activities (CT, PGPH and T-like)” value (purified 20S proteasome) was “unable to block all the three proteasomal activities” and the three proteasomal activities (proteasome [8]) was “dose-dependent inhibition”. The “response of Abi- and Enz refractory CRPC patients with C-terminal AR loss” value [9] was “remain responsive”, the “sensitivity of BTZ-resistant MM cells (MTS)” value [10] was “sensitive to Gal treatment alone” and the “time after which full length AR (AR-FL) protein decreased” value ([11]; 20 μM Gal for up to 72 h) was no less than 48 h. For the same molecule, the “AR-FL protein expression in cytosolic and nuclear fractions” value ([11]; 20 μM Gal, anti-AR N20 antibody) was “a decrease in both cytosolic and nuclear AR-FL protein expression”, the inhibition at 20 µM (proteasome [2]; after 64 h) was greater than 50% and the inhibition at 20 µM (proteasome [2]; at 48 h) was 30%. For the same molecule, the inhibition at 20 µM (proteasome [2]; between 2-24 h) was 10%, the “proteasomal CT-like activities, time course” value (proteasome [2]; 22Rv1 cells, 20 μM Gal up to 72 h) was “inhibited in a time-dependent fashion, but later than DUBs inhibition” and the “proteasomal CT-like activity” value (proteasome [2]; 22Rv1 cells, 5-20 μM Gal, 24 h) was “dose-dependent decrease”. For the same molecule, the “proteasomal PGPH-like activity” value (proteasome [2]; 22Rv1 cells, 5-20 μM Gal, 24 h) was “dose-dependent decrease”, the “proteasomal trypsin (T)-like activity” value (proteasome [2]; 22Rv1 cells, 5-20 μM Gal, 24 h) was “but not trypsin (T)-like activities” and the “all three proteasomal activities” value (proteasome [2]; 22Rv1 cells, 5-20 μM Gal, 48 h) was “decreased in a Gal dose-dependent fashion”. The “CT-like activity of the proteasome” value (proteasome [12]) was “could inhibit the CT-like activity”, the “sustained accumulation of oxidized proteins detected up to” value [13] was “up to 72 h” and the “time before which oxidized proteins accumulated” value [13] was less than 2 h. The “time after which caspase-3 activity increased” value (caspase-3) was no less than 24 h, the “time at which caspase-3 activity reached the highest” value (caspase-3) was 48 h and the caspase-3 activation (caspase-3; after 48 h) was 5 fold. For the same molecule, the “morphological changes / cell death” value (22Rv1 cells [3]) was “did not cause apparent morphological changes”.
In the case of `CC(C)C[C@@H](C=O)NC(=O)[C@H](CC(C)C)NC(=O)[C@H](CC(C)C)NC(=O)OCc1ccccc1` [MG132] (Cbz-Leu-Leu-Leu-aldehyde), the IC50 (proteasome [14]) is given as 100 nM, the “inhibition of Gal-induced AR-V7 degradation” value (AR-V7) is given as “could be inhibited” and the IC50 (calpain [15]) is given as 1200 nM.
For `O=C(O)/C(S)=C/c1ccc(I)cc1` [PD150606], the “rescue of Gal-induced AR-V7 loss by inhibitor” value (AR-V7 protein [1]) was “rescue AR-V7 loss partially”.
For `CC(=O)O[C@H]1CC[C@@]2(C)C(=CC[C@@H]3[C@@H]2CC[C@]2(C)C(c4cccnc4)=CC[C@@H]32)C1` [abiraterone acetate], the median survival (metastatic CRPC [16]) is listed as 14.8 months.
In the case of `CCCC[C@@H](C=O)NC(=O)[C@H](CC(C)C)NC(=O)OCc1ccccc1` [calpeptin, Z-Leu-Nle-CHO], the “block of Gal-induced nuclear AR-V7 depletion” value (AR-V7 protein [17]; 22Rv1 cells, 20 μM Gal plus 40 μM calpeptin, 56 h and 72 h) is reported as “could be blocked”, the “rescue of Gal-induced nuclear AR-V7 loss” value (AR-V7 protein [17]) is reported as “partially rescued AR-V7 loss by Gal” and the “rescue of Gal-induced AR-V7 loss by inhibitor” value (AR-V7 protein [1]) is reported as “rescue AR-V7 loss partially”.
For Z-VAD, the “rescue of Gal-induced nuclear AR-V7 loss” value (AR-V7 protein [17]) was “able to block the Gal-induced AR-V7 depletion”.
